Assays:
[1] = test system: P. falciparum female gametes; experiment: Pf FGAA with compounds added 30 min after triggering gametocyte activation (gamete-targeting); assay type: cell-based, Plasmodium falciparum NF54; conditions: Plasmodium falciparum; 0h incubation time
[2] = test system: P. falciparum stages IV–V gametocytes; experiment: Gametocytocidal ATP-depletion assay (gametocyte ATP bioluminescence); assay type: cell-based, Plasmodium falciparum; conditions: Plasmodium falciparum, mean
Method in brief: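 Purified stage IV–V gametocytes (12,500/well) incubated with compound for 48 h at 37 °C under 3% O2/5% CO2. ATP measured by BacTiter-Glo luminescence as a viability surrogate; hits tested at 2 μM single concentration.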

[3] = test system: P. falciparum male gametocytes (exflagellation); experiment: Exflagellation assay (male gametocytes); assay type: cell-based, Plasmodium falciparum; design: Exflagellation Inhibition %: concentration or dose not given beside the values
Procedure: Figure 5 Exflagellation inhibition by six TCAMS compounds. Stage V gametocyte cultures were exposed to 2 μM of TCMDC-141070 and 1 μM of the five remaining compounds for 48 h. The percentage inhibition was determined compared to DMSO-treated controls. Compounds were then progressed into SMFA to further determine the transmission blocking in mosquitoes. Each bar represents mean value of two (TCMDC-125345, TCMDC-141698, TCMDC-123767, TCMDC-141154) or three (TCMDC-141070, TCMDC-124559) independent replicates with s.d.
Exflagellation was measured as previously reported[24] with minor modifications. Using 5 ml of day-14 gametocyte cultures, parasites were incubated with the corresponding concentration for each compound in six-well plates at 37 °C (3% O2, 5% CO2 and 92% N2). After 48 h incubation, a 200 μl sample was spun down in a microfuge, the supernatant was carefully removed and the pellet resuspended in 15 μl of pre-warmed ookinete medium. Parasites were placed in Fast-Read disposable haemocytometer slides and, after 15 min at room temperature (22 °C), exflagellation centres per field were counted under × 10 objective.

HepG2 cells = experiment: HepG2 cytotoxicity assay; assay type: cell-based
Method in brief: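 Steps: equilibrate plates and detection reagent at room temperature (30 min); dispense CellTiter-Glo; allow 10 min at room temperature; record luminescence.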

[4] = test system: P. falciparum asexual blood stages; conditions: ref 1 (Gamo, F. J. et al., Nature 465, 305-310, 2010), cited from earlier work; for IC50: TCAMS asexual blood stage data, read-out: Pf Asexual blood stages XC50; for Pf Asexual stages XC50: TCAMS data
[5] = test system: Plasmodium berghei asexual blood stages; experiment: In vivo antimalarial therapeutic efficacy, P. berghei murine model; design: species or system CD1 mice
Procedure: Two out of the six compounds progressed to SMFA, TCMDC-123767 (cluster 30) and TCMDC-141154 (cluster 4), were evaluated in vivo in the Plasmodium berghei murine model. Selection criteria was based on the compound potencies in both asexual stages and gametocytes in the Pf FGAA, as well as on their transmission-blocking activity observed in the SMFA (Table 1). Owing to compound availability, TCMDC-141154 had to be replaced by a close analogue from cluster 4: TCMDC-140549 (Supplementary Data 3). Compounds were tested at 50 mg kg^−1 single dose 2-day oral treatment and efficacy was measured as a reduction of asexual blood stages parasitaemia greater than 40% compared with the vehicle-treated mice.
Pathogen-free CD1 mice (Hsd:ICR) were obtained from Harlan Interfauna Iberica (Barcelona, Spain). Eight weeks old female CD-1 mice were infected intravenously with 10^7 infected erythrocytes (day 0). Dosing solutions were prepared in water containing 5% DMSO/20% Captisol, at a target dose of 50 mg kg^−1. Mice received two oral doses once a day according to their body weight (20 ml kg^−1) starting at day 2 after infection. Control mice received the same treatment schedule with the vehicle used for the compound preparation. Samples from mice peripheral blood were taken before starting treatment and 24 h after finishing the dosing, to measure parasitaemia by flow cytometry, using the YOYO-1 staining, to assess the reduction of parasitaemia compared with the vehicle-treated mice.

[6] = In vivo pharmacokinetic study, single oral dose; design: species or system CD-1 mice
Procedure: Female CD-1 mice (Harlan Interfauna Iberica) at 8 weeks of age were used for single oral dose pharmacokinetic studies (n=2). Dosing solutions were prepared in 20% (v:v) Captisol in water, at a target dose of 50 mg kg^−1 (dose volume of 20 ml kg^−1). After oral dosing, blood samples (25 μl) were collected at 30 min, 1 h, 6 h and 8 h post dose for TCMDC-123767. All the blood samples were diluted with 25 μl of an aqueous solution of saponine 1% (w:v), and stored at −80 °C until analysis. Mice blood samples were analysed for each compound using a method upon protein precipitation followed by LC-MS/MS analysis (Applied Biosystems). Data analysis of the concentration time profiles was performed by noncompartmental methods by using WinNonLin Phoenix Version 6.3.

[7] = Intrinsic clearance assay; assay type: in vitro ADME; conditions: mouse liver microsomes, 0.5 μM
Procedure: Intrinsic clearance (CLi) values were determined in mouse liver microsomes (M1000, XenoTech). Test compounds (final concentration 0.5 μM) were incubated at 37 °C for 45 min in 50 mM potassium phosphate buffer (pH 7.4) containing 0.5 mg microsomal protein per ml. The reaction was started by addition of cofactor NADPH ([…], Sigma) at 1 mM final concentration. The final concentration of organic solvent (DMSO) was limited to 0.25% of the final volume. At 0, 5, 15, 30, and 45 min, an aliquot (100 μl) was taken, quenched with acetonitrile containing an appropriate internal standard, and analysed by HPLC-MS/MS (Applied Biosystems). CLi was determined from the first-order elimination constant by nonlinear regression, corrected for the volume of the incubation and assuming […] mouse protein per g liver. Values for CLi were expressed as ml min^-1 per g liver.

[8] = 48 h exposure, 2 μM TCMDC-141070, 1 μM other compounds, vs DMSO, mean of 2-3 replicates
[9] = HepG2 TOX50 versus Pf FGAA IC50

Structure (SMILES) | IC50 [1] [µM] | inhibition at 2 µM [2] [%] | Exflagellation Inhibition % ([3]; Expt 1) [%] | Tox50 (HepG2 cells; HepG2, 48 h) [µM] | Selectivity ratio (HepG2 cells; HepG2 TOX50 / Pf FGAA IC50) | HepG2 cells mean TOX50 (HepG2 cells; mean; HepG2 cells) [µM] | IC50 [4] [nM] | Pf Asexual stages XC50 [4] [nM] | Inhibition of exflagellation (%) [3, 8] [%] | Exflagellation Inhibition % ([3]; Expt 2) [%] | Selectivity ratio (HepG2 cells; [9]) | HepG2 cells mean TOX50 (HepG2 cells; HepG2 cells; mean) [µM] | further results
CC(C)(CNC(=O)[C@H]1CCCCN1)c1nc(-c2ccc(Cl)c(O)c2)c(-c2ccncc2)[nH]1 [TCMDC-141070] | 1.77 | -0.73 | 75 | 28.96 | 54.30 | 28.96 | 730 | 730 | – | – | – | – | inhibition at 2 µM ([3]; Plasmodium falciparum, 48 h exposure, 2 μM TCMDC-141070, 1 μM other compounds, vs DMSO, mean of 2-3 replicates): 99%
FC(F)(F)c1cnc(Sc2nnc(-c3ccncc3)o2)c(Cl)c1 [TCMDC-123767] | > 20 | -5.49 | 88 | 100 | – | – | 270 | 270 | 88 | 88 | >625 | >100 | HepG2 cells TOX50 (HepG2 cells; HepG2 cells): >100 µM; reduction of asexual blood stages parasitaemia (threshold 40% vs vehicle) ([5]; 50 mg kg^−1 single dose 2-day oral treatment, mice): not reduced above the threshold; ED50 ([5]; single dose 2-day treatment, oral, P. berghei mice): > 50 mg/kg; elimination in vivo ([6]; oral 50 mg kg^−1, mouse): rapidly eliminated; exposure levels in blood ([6]; oral 50 mg kg^−1, mouse): very low; last detected in blood above the lower limit of quantification (time post-administration) ([6]; oral 50 mg kg^−1, mouse blood, LLOQ 2.5 ng ml^−1): 1 h; in vitro microsome clearance [7]: 7.9 ml min^−1 per g liver
CC1Cc2ccccc2N1S(=O)(=O)c1cccc(C(=O)Nc2nc(-c3ccccn3)cs2)c1 (stereo not shown) [TCMDC-124559] | – | 8.95 | 28 | >100 | – | – | 1320 | 1320 | 30 | 0 | 146.27 | 50.12 | Exflagellation Inhibition % ([3]; Expt 3): 60%
COc1cc(OC)cc(C(=O)Nc2nc(-c3ccccn3)cs2)c1 [TCMDC-125345] | 4.95 | 39.5 | 47 | 39.82 | – | – | 560 | 560 | 50 | – | 111.27 | 39.82 | –

Further lines, with some results ahead:

IC50 [1] [µM] | Structure (SMILES) | inhibition at 2 µM [2] [%] | Exflagellation Inhibition % ([3]; Expt 1) [%] | Tox50 (HepG2 cells; HepG2, 48 h) [µM] | Selectivity ratio (HepG2 cells; HepG2 TOX50 / Pf FGAA IC50) | HepG2 cells mean TOX50 (HepG2 cells; mean; HepG2 cells) [µM] | IC50 [4] [nM] | Pf Asexual stages XC50 [4] [nM] | Inhibition of exflagellation (%) [3, 8] [%] | Exflagellation Inhibition % ([3]; Expt 2) [%] | Selectivity ratio (HepG2 cells; [9]) | HepG2 cells mean TOX50 (HepG2 cells; HepG2 cells; mean) [µM] | further results
1.93 | Cc1ccc(Cn2nc(Cl)c(N3CCNCC3)cc2=O)cc1NC(=O)Nc1ccc(-c2ccccc2)cc1 [TCMDC-141698] | -7.4 | – | 4.79 | 10.79 | 4.79 | 680 | 670 | 84 | 87 | – | – | –
0.25 | NCC1(c2nc(-c3ccc(Cl)c(O)c3)c(-c3ccncc3)[nH]2)CCCCC1 [TCMDC-141154] | -10.5 | 97 | 11.9 | 56.01 | 11.90 | 740 | 530 | 97 | 97 | – | – | –

— PMC5442318, “Hundreds of dual-stage antimalarial molecules discovered by a functional gametocyte screen” (Nature Communications, 2017)
